In PubChem BioAssay (NCI):
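Grown in 96-well plates, cells were treated for 48 hours with each compound at five concentrations. Insufficient inhibition: endpoint recorded as highest concentration tested. Definition used: TGI = concentration required for complete inhibition of growth.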

Legend:
Assay in all cases: growth of human tumour cells (NCI), 48 h
[1] = test system: NCI-H522 lung
[2] = test system: OVCAR-3 ovarian
[3] = test system: DU-145 prostate
[4] = test system: NCI/ADR-RES ovarian
[5] = test system: MALME-3M melanoma
[6] = test system: CAKI-1 renal
[7] = test system: HCT-116 colon
[8] = test system: SR leukemia

| SMILES | TGI [1] | TGI [2] | TGI [3] | TGI [4] | TGI [5] | TGI [6] | TGI [7] | TGI [8] |
| --- | --- | --- | --- | --- | --- | --- | --- | --- |
| COc1ccc(Cl)cc1NC(=O)O/N=C(\Cl)C(C)C | 2.46 µM | 18.7 µM | 37.4 µM | 16.6 µM | 5.28 µM | 3.24 µM | 45.5 µM |  |
| COC(=O)c1sc2c(c1C(=O)OC)C(=Nc1ccc(OC)cc1)SC2=Nc1ccc(OC)cc1 | 2.45 µM | 1.32 µM | 1.69 µM | 3.47 µM | 3.65 µM | 5.84 µM | 1.58 µM | > 100 µM |
| N#CC1=C(N)OC2=C(CCCc3ccc([N+](=O)[O-])cc32)C1c1ccc(Cl)cc1 (stereo not drawn) | 31.7 µM | 29.4 µM | 63.2 µM | 78.1 µM | 31.4 µM | > 100 µM | 12.5 µM |  |
| O=C1c2cccc3cc([N+](=O)[O-])cc(c23)C(=O)N1c1ccc(OCCN2CCCC2)cc1 | 31.7 µM |  | > 100 µM | > 100 µM | 30.9 µM | > 100 µM | 46.7 µM | 73.2 µM |
| COC(=O)C(=O)C(C(=O)C(=O)Nc1cc(C)ccc1C)c1nc2ccccc2[nH]c1=O (stereo not drawn) | > 100 µM | > 100 µM | > 100 µM | > 100 µM | > 100 µM | > 100 µM | > 100 µM | > 100 µM |
| Clc1ccc(Cc2nc3cc(Cl)c(Cl)cc3n2CC2CCCN3CCCCC23)cc1 (stereo not drawn) | 24.6 µM | 28.5 µM | 26.2 µM | 27.3 µM | 20.9 µM | 34.1 µM | 21.8 µM | 15.1 µM |
| CC(=O)N(C(=O)CC(=O)N1N=C(C)C(N=Nc2cccc([N+](=O)[O-])c2)C1=O)c1ccc(Cl)cc1 (stereo not drawn) | > 10 µM | > 10 µM | > 10 µM | > 10 µM | > 10 µM | > 10 µM | > 10 µM | > 10 µM |
| COC(=O)[C@@H]1CN(C(=O)Cc2ccccc2)C(=O)N1 | > 100 µM | > 100 µM | > 100 µM | > 100 µM | > 100 µM | > 100 µM | > 100 µM | > 100 µM |
| CC1(C)OCC(/C=C\C(O)CC2(C)OCCO2)CO1 (stereo not drawn) | > 100 µM | > 100 µM | > 100 µM | > 100 µM |  | > 100 µM | > 100 µM | > 100 µM |
| CCOC(=O)c1cccc(N=NNc2cccc(C(=O)OCC)c2)c1 | 84.3 µM | 93.9 µM | > 100 µM | > 100 µM | > 100 µM | > 100 µM | > 100 µM | > 100 µM |
| COc1ccc(/C=C(\C#N)c2ccccn2)cc1OC | > 100 µM | > 100 µM | > 100 µM | 55.7 µM | > 100 µM | > 100 µM | > 100 µM | > 100 µM |
| CCOC(=O)c1c(N2CCN(C)CC2)[nH]c(=O)c(C(c2c(Cl)cccc2Cl)c2c(O)c(C(=O)OCC)c(N3CCN(C)CC3)[nH]c2=O)c1O | 42 µM | 87.1 µM | 38.3 µM | > 100 µM | 41.5 µM | 52.7 µM | > 100 µM | 67.6 µM |
| O=C(NCC(O)COc1ccccc1)c1ccccc1O (stereo not drawn) | > 100 µM | > 100 µM | > 100 µM | > 100 µM | > 100 µM | > 100 µM | > 100 µM | > 100 µM |
| CC(C)=CC(=O)c1[nH]c2ccccc2c1CC(=O)NCCc1cnc[nH]1 | > 100 µM | > 100 µM | > 100 µM | > 100 µM | > 100 µM | > 100 µM | > 100 µM | > 100 µM |
| COc1cccc(C2c3cc4c(cc3OC(NNS(=O)(=O)c3ccc(C)cc3)C2C)OCO4)c1O (stereo not drawn) | 35.9 µM | 57.5 µM | > 100 µM |  | 64.4 µM | > 100 µM | 30.1 µM | 26.2 µM |
| Cc1ccc2c(c1)CC1(Cc3cc(C)ccc3C1=O)C2=O | > 100 µM | > 100 µM | > 100 µM | > 100 µM | > 100 µM | > 100 µM | > 100 µM | > 100 µM |
| O=c1[nH]nc(-c2cccc([N+](=O)[O-])c2)[nH]1 | > 100 µM | > 100 µM | > 100 µM | > 100 µM | > 100 µM | > 100 µM | > 100 µM | > 100 µM |
| CCOc1c2c(cc3c1C(=O)c1c(OC)cccc1C3=O)C=C(OC)CC2 | > 25 µM | > 25 µM | > 25 µM | > 25 µM | > 25 µM | > 25 µM | > 25 µM | 22.9 µM |
| O=C1CC2(CCN(Cc3ccccc3)CC2)C(=O)N1N1CCCCC1 | > 100 µM | > 100 µM | > 100 µM | > 100 µM | > 100 µM | > 100 µM | > 100 µM |  |
| CCn1c(=O)c2nc(SC)sc2n(-c2ccccc2)c1=S | > 100 µM | > 100 µM | > 100 µM | > 100 µM | > 100 µM |  | > 100 µM | > 100 µM |

| SMILES | TGI [1] | TGI [2] | TGI [3] | TGI [4] | TGI [5] | TGI [6] | TGI [7] | TGI [8] |
| --- | --- | --- | --- | --- | --- | --- | --- | --- |
| COc1ccc(C(CC(=O)c2cccs2)C(=O)c2ccc3c(c2)OCO3)cc1 (stereo not drawn) |  |  | > 100 µM | > 100 µM | > 100 µM | > 100 µM | > 100 µM |  |
| C=CCCCCCCCCCOC1C=CC(O)C(CO)O1 (stereo not drawn) | > 100 µM | > 100 µM | > 100 µM | > 100 µM | 73.3 µM | > 100 µM | > 100 µM |  |
| Cc1nc2nnc(CCCCCCCCc3nnc4nc(C)[nH]n34)n2[nH]1 | > 100 µM | > 100 µM | > 100 µM | > 100 µM | > 100 µM | > 100 µM | > 100 µM |  |
| CCC(C)C(NC(=O)c1cccc2c(=O)c3ccccc3[nH]c12)C(=O)O (stereo not drawn) | > 100 µM | > 100 µM | > 100 µM | > 100 µM | > 100 µM |  | > 100 µM | > 100 µM |
| C#C[C@]1(O)CC[C@H]2[C@@H]3CCC4=C/C(=N/OC(=O)c5cccc6cc7ccccc7nc56)CC[C@@H]4[C@H]3CC[C@@]21CC |  | > 100 µM | > 100 µM | > 100 µM |  | > 100 µM | > 100 µM | > 100 µM |
| CC(=O)CC(O)(C(F)(F)Cl)C(F)(Cl)Cl (stereo not drawn) | > 10 µM | > 10 µM | > 10 µM | > 10 µM | > 10 µM | > 10 µM | > 10 µM |  |
| O=[N+]([O-])c1ccc(CSC2=C(c3ccc(Cl)cc3)S/C(=C3\SC(SCc4ccc([N+](=O)[O-])cc4)=C(c4ccc(Cl)cc4)S3)S2)cc1 | > 100 µM | > 100 µM | > 100 µM | > 100 µM | > 100 µM | > 100 µM | > 100 µM |  |
| CCCNC(=O)c1cc(OC)c(OC)cc1NC(=O)C12CC3CC(CC(C3)C1)C2 | 30 µM | 35.4 µM | 35.5 µM | 48.3 µM | 32.9 µM | 41.3 µM | 30.4 µM |  |
| COc1ccc2cc(CNCCCCCCNC(=O)Nc3cccc4ccccc34)ccc2c1 | > 100 µM | > 100 µM | > 100 µM |  | > 100 µM | > 100 µM | > 100 µM | > 100 µM |
| O=C1c2ccccc2CC12Cc1ccc3c(c1C2=O)CCCC3 (stereo not drawn) | > 100 µM | > 100 µM | > 100 µM | > 100 µM | > 100 µM |  | > 100 µM | 6.56 µM |
| c1cc(CSP234N5CCN2CCN3CCN4CC5)cc(CSP234N5CCN2CCN3CCN4CC5)c1 | 43.1 µM | > 100 µM | > 100 µM | > 100 µM |  | > 100 µM | > 100 µM | 28.2 µM |
| Cc1cc2nc3c(N)nn(CCCN(C)C)c3nc2cc1C |  | > 100 µM | > 100 µM | > 100 µM |  | > 100 µM | > 100 µM |  |
| NC1=Nc2ncccc2C(=O)NN1 |  | > 10 µM | > 10 µM |  | > 10 µM |  | > 10 µM | > 10 µM |
| CCOC(=O)/C(C(=O)c1ccc[nH]1)=C1/CCCN1C |  | > 100 µM | > 100 µM | > 100 µM | > 100 µM | > 100 µM | > 100 µM | > 100 µM |
| O=C(Cn1c(=O)oc2ccccc21)N(c1ccccc1)c1ccccc1 |  | > 100 µM | > 100 µM | > 100 µM | > 100 µM | > 100 µM | > 100 µM | > 100 µM |
| CC[C@@]1(O)C(=O)OCc2c1cc1n(c2=O)Cc2c-1nc1ccc(N)cc1c2CC[Si](C)(C)C | 0.127 µM | 0.797 µM | 1.68 µM | 2.02 µM | 0.31 µM |  | 2.01 µM | < 0.01 µM |
| O=C(OC[C@H]1C[C@H]2C(=O)OCCC[C@H]2O1)c1ccccc1 | > 100 µM | > 100 µM | > 100 µM | > 100 µM |  | > 100 µM | > 100 µM | > 100 µM |
| C=CCSC1=N/C(=C\c2ccc(C)cc2)C(=O)N1CC=C | > 100 µM | > 100 µM | > 100 µM | > 100 µM |  | > 100 µM | 67.4 µM | 29.4 µM |
| CCOC(=O)c1c(NS(=O)(=O)c2ccccc2)sc2c1CCCC2 |  | 82.3 µM | > 100 µM | > 100 µM |  | > 100 µM | > 100 µM | > 100 µM |
